# Source: ChEMBL document CHEMBL4219088, “Novel 4-aminoquinazoline derivatives induce growth inhibition, cell cycle arrest and apoptosis via PI3Kα inhibition” (Bioorg Med Chem, 2018)
# What was measured:
# Assay type in all cases: functional, cell-based
# HCT-116 = assay: Antiproliferative activity against human HCT116 cells after 72 hrs by sulforhodamine B assay; conditions: HCT-116, 72 h
# MCF7 = assay: Antiproliferative activity against human MCF7 cells after 72 hrs by sulforhodamine B assay; conditions: MCF7, 72 h
# A549 = assay: Antiproliferative activity against human A549 cells after 72 hrs by sulforhodamine B assay; conditions: A549, 72 h
# MDA-MB-231 = assay: Antiproliferative activity against human MDA-MB-231 cells after 72 hrs by sulforhodamine B assay; conditions: MDA-MB-231, 72 h
# SK-HEP1 = assay: Antiproliferative activity against human SKHEP1 cells after 72 hrs by sulforhodamine B assay; conditions: SK-HEP1, 72 h
# SNU-638 = assay: Antiproliferative activity against human SNU638 cells after 72 hrs by sulforhodamine B assay; conditions: SNU-638, 72 h
Structure (SMILES),IC50 (HCT-116) [nM],IC50 (MCF7) [µM],IC50 (A549) [nM],IC50 (MDA-MB-231) [nM],IC50 (SK-HEP1) [nM],IC50 (SNU-638) [nM]
COc1ncc(-c2ccc3ncnc(NCCN4CCOCC4)c3c2)cc1NS(=O)(=O)c1ccc(F)cc1F,2740,28.9,620,380,840,3960
COc1ncc(-c2ccc3ncnc(NCCN(C)C)c3c2)cc1NS(=O)(=O)c1ccc(F)cc1,3200,1.23,2420,1220,9500,1210
Cn1c(=O)n(-c2ccc(C(C)(C)C#N)cc2)c2c3cc(-c4cnc5ccccc5c4)ccc3ncc21 [DACTOLISIB],,,,180,,
COc1ncc(-c2ccc3ncnc(NCCCN(C)C)c3c2)cc1NS(=O)(=O)c1ccc(F)cc1F,2200,3.66,2780,1540,4680,1260

# More lines, now with the values ahead:
IC50 (HCT-116) [nM],IC50 (MCF7) [µM],IC50 (A549) [nM],IC50 (MDA-MB-231) [nM],IC50 (SK-HEP1) [nM],IC50 (SNU-638) [nM],Structure (SMILES)
1740,4.59,3140,2580,1140,980,CCCCS(=O)(=O)Nc1cc(-c2ccc3ncnc(NCCCN4CCOCC4)c3c2)cnc1OC
490,4.73,3520,880,860,1260,CCCCS(=O)(=O)Nc1cc(-c2ccc3ncnc(NCCCN(C)C)c3c2)cnc1OC
590,10.8,1560,420,440,610,CCCCS(=O)(=O)Nc1cc(-c2ccc3ncnc(NCCN4CCOCC4)c3c2)cnc1OC
